According to patent US20160242416A1, “FUNGICIDAL ISOXAZOLINE CARBINOLS” (E I DU PONT DE NEMOURS AND COMPANY, priority 2015, published 2016):

What was measured:
Botrytis cinerea = assay: Test B: gray mold, preventive spray on tomato seedlings; settings: 10 ppm; gray mold on tomato; 100 = 100% disease control, 0 = no control
[1] = test system: Puccinia recondita f sp. tritici; assay: Test F: wheat leaf rust, preventive spray on wheat seedlings; settings: 10 ppm; wheat leaf rust; 100 = 100% disease control, 0 = no control
Zymoseptoria tritici = assay: Test E: wheat leaf blotch, preventive spray on wheat seedlings; settings: 10 ppm; wheat leaf blotch; 100 = 100% disease control, 0 = no control
[2] = test system: Erysiphe graminis f sp. tritici; assay: Test G: wheat powdery mildew, preventive spray on wheat seedlings; settings: 10 ppm; wheat powdery mildew; 100 = 100% disease control, 0 = no control
Stagonospora nodorum = assay: Test D: wheat glume blotch, preventive spray on wheat seedlings; settings: 10 ppm; wheat glume blotch; 100 = 100% disease control, 0 = no control

SMILES	Test B rating (% disease control) (Botrytis cinerea) [%]	Test F rating (% disease control) [1] [%]	Test E rating (% disease control) (Zymoseptoria tritici) [%]	Test G rating (% disease control) [2] [%]	Test D rating (% disease control) (Stagonospora nodorum) [%]
OC(Cn1cncn1)(C1=NOC(c2ccc(Cl)cc2)C1)c1cccc(Oc2ccccc2)c1 (single isomer, unassigned) [Compound 109]	0	100	66	93	59
OC(Cn1cncn1)(C1=NOC(COc2ccccc2)C1)c1ccc(Cl)cc1 (single isomer, unassigned) [Compound 144]	0	100	17	99	99
OC(Cn1cncn1)(C1=NOC(COC2CCCCC2)C1)c1ccc(Cl)cc1 (single isomer, unassigned) [Compound 90]	0	0	0	64	59
CC(C)(C)C(O)(Cn1cncn1)C1=NOC(COc2ccc(-n3cc(Br)cn3)cc2)C1 (stereo not drawn) [Compound 30]	99	79	0	100	0
CSc1ccc(C2CC(C(O)(Cn3cncn3)c3ccc(Cl)cc3)=NO2)cc1 (single isomer, unassigned) [Compound 108]	0	78	25	64	0
C[S+]([O-])c1ccc(C2CC(C(O)(Cn3cncn3)c3ccc(Cl)cc3)=NO2)cc1 (single isomer, unassigned) [Compound 111]	0	100	9	98	0
OC(Cn1cncn1)(C1=NOC(Cc2ccc(F)cc2)C1)c1ccc(Cl)cc1 (single isomer, unassigned) [Compound 198]	0	100	0	100	81
CC(C)(C)C(O)(Cn1cncn1)C1=NOC(Cn2cc(Br)cn2)C1 (single isomer, unassigned) [Compound 41]	0	41	0	90	0
OC(Cn1cncn1)(C1=NOC(Cc2ccc(C(F)(F)F)cc2)C1)c1ccc(Cl)cc1 (single isomer, unassigned) [Compound 202]	0	100	21	99	59
CC1(C(O)(Cn2cncn2)C2=NOC(c3ccc(Cl)cc3)C2)CC1 (single isomer, unassigned) [Compound 127]	0	98	9	98	98
CCC(C)(C)C(O)(Cn1cncn1)C1=NOC(Cc2ccc(C(F)(F)F)cc2)C1 (single isomer, unassigned) [Compound 20]	0	100	98	99	65
OC(Cn1cncn1)(C1=NOC(COc2ccc(OCc3ccccc3)cc2)C1)c1ccc(Cl)cc1 (single isomer, unassigned) [Compound 69]	27	100	25	94	38
